Measured values taken from patent US6632832B1 (Dabur Research Foundation, priority 2002, dated 2003).
Values after ≈ are worked out from the molar mass of the structure shown.

Experiments:
B16F10 (melanoma) = experiment: MTT cytotoxicity assay, 72 hours; type: cell-based, human; details: 72 h MTT
Protocol: (§1) After 72 hours, the assay was terminated and percent cyotoxicities calculated.

DU145 (prostate) = experiment: MTT cytotoxicity assay, 72 hours; type: cell-based, human; details: 72 h MTT
Protocol: as §1

HBL100 (breast) = experiment: MTT cytotoxicity assay, 72 hours; type: cell-based, human; details: 72 h MTT
Protocol: as §1

KB (oral) = experiment: MTT cytotoxicity assay, 72 hours; type: cell-based, human; details: 72 h MTT
Protocol: as §1

L132 (lung) = experiment: MTT cytotoxicity assay, 72 hours; type: cell-based, human; details: 72 h MTT
Protocol: as §1

MiaPaCa.2 (pancreas) = experiment: MTT cytotoxicity assay, 72 hours; type: cell-based, human; details: 72 h MTT
Protocol: as §1

PA1 (ovary) = experiment: MTT cytotoxicity assay, 72 hours; type: cell-based, human; details: 72 h MTT
Protocol: as §1

PTC (colon) = experiment: MTT cytotoxicity assay, 72 hours; type: cell-based, human; details: 72 h MTT
Protocol: as §1

U87.MG (glioblastoma) = experiment: MTT cytotoxicity assay, 72 hours; type: cell-based, human; details: 72 h MTT
Protocol: as §1

[1] = tested on: EGF dependent proliferation in human pancreatic cancer cells (MiaPaCa2); experiment: EGF dependent proliferation, percent viable cells by MTT in sera free conditions; type: cell-based; parameters: dose or concentration left out as unconfirmed; details: Carvedilol for 16 hours, then varying EGF for 48 hours
Protocol: Briefly, 10000 human pancreatic cancer cells (MiaPaCa2) were seeded per well in a 96-well culture plate in DMEM containing 5% FCS. All experiments were carried out in triplicates at 37° C. in a CO2 incubator. The cells were incubated for a period of 12 hours, washed once with PBS and the medium was changed to DMEM without Fetal calf serum (FCS). […] The untreated control cells were treated with 1% DMSO in DMEM. The cells were washed with PBS and incubated with varying concentrations of EGF in DMEM without FCS for a period of 48 hours. The percent viable cells in absence and presence of Carvedilol was determined in an MTT assay in vitro.

[2] = tested on: PDGF dependent proliferation in human pancreatic cancer cells (MiaPaCa2); experiment: PDGF dependent proliferation, percent viable cells by MTT in sera free conditions; type: cell-based; details: Carvedilol 20 ug/ml for 16 hours, then varying PDGF for 48 hours
Protocol: Briefly, 10000 human pancreatic cancer cells (MiaPaCa2) were seeded per well in a 96-well culture plate in DMEM containing 5% fetal calf serum (FCS). All experiments were carried out in triplicates at 37° C. in a CO2 incubator. The cells were incubated for a period of 12 hours, washed once with PBS and the medium was changed to DMEM without FCS. […] The untreated control cells were treated with 1% DMSO in DMEM. […] The percent viable cells in absence and presence of Carvedilol was determined in an MTT assay in vitro.

[3] = tested on: human pancreatic cancer cells (MiaPaCa2); experiment: Cytotoxicity abrogation assay with intracellular blocking of PKC by Bisindolylmaleimide; type: cell-based
Protocol: (§2) Briefly, 10000 human pancreatic cancer cells (MiaPaCa2) were seeded per well in a 96-well culture plate in DMEM containing 5% FCS. All experiments were carried out in triplicate at 37° C. in CO2 incubator. The plates were incubated overnight to allow complete reattachment of the cells. Subsequently, the medium was replaced with DMEM. The cells were incubated with varying concentrations of Bisindolylmaleimide, the specific inhibitor of PKC for a period of three hours. Bisindolylmaleimide was dissolved in 1% DMSO The control cells were treated with 1% DMSO. The cells were washed with PBS, and the medium was changed to fresh DMEM.

[4] = tested on: human pancreatic cancer cells (MiaPaCa2); experiment: Cytotoxicity abrogation assay with intracellular blocking of PI3 kinase by Wortmannin; type: cell-based
Protocol: as §2, with “of Wortmannin,the” for “of Bisindolylmaleimide, the”, “of PI3 kinase” for “of PKC”, “hours. Wortmannin” for “hours. Bisindolylmaleimide”, “in 0.5% DMSO.” for “in 1% DMSO”, “with 0.5%” for “with 1%”

Cyclooxygenase 2 enzyme = experiment: COX2 activity by PGE2 quantitation in MiaPaCa2 cells; type: cell-based, human
Protocol: 1×10^6 human pancreatic cancer cells (MiaPaCa2) were plated in 6 well plates in RPMI containing 10% FCS. The cells were incubated for a period of 24 hours at 37° C. in 5% CO2. The medium was changed to DMEM without serum. […] All experiments were carried out in duplicates. […] The medium was aspirated to remove Bisindolemaleimide, and the cells were washed twice with PBS. […] The cells were incubated at 37° C. for one hour. Indomethacin at a concentration of 10 ug/ml was added to the wells to block the COX enzyme. […] The cells were lysed (2.5% dodecyltrimethylammonium) and incubated for 10 minutes at room temperature. The cell lysates were transferred to microtitre plate coated with goat anti mouse Ig coated plate. 50 microliter of PGE2 standards ranging from 2.5 to 320 pg/ml were added to the microtitre plate in duplicates. 50 microliter of mouse anti PGE2 and 50 microliter of PGE2 conjugated peroxidase was added to the wells. The plate was covered and incubated at room temperature for one hour on a microtitre plate shaker. The wells were aspirated and washed 4 times with suitable was buffer. 150 microlire of enzyme substrate was added to all the wells. […] The OD was read at 450 nm.
The levels of secreted and intracellular PGE2 were quantitated in cells treated with or without bisindolemaleimide.

[5] = tested on: B16F10 melanoma tumor xenografts; experiment: B16F10 melanoma xenograft model in nude mice; type: in vivo, Balb/c athymic mice; details: for tumor inhibition based on tumor volumes compared with untreated controls: oral gavage once a day, Day 19
Protocol: Melanoma tumor xenografts were initiated in Balb/c athymic mice by subcutaneous inoculation of a single cell suspension of B16F10 cells (10×10^6 cells/100 μL). The tumor-bearing mice were divided into three groups of 4 animals each. […] The third group served as control. […] The anti-tumor activity was monitored by measuring the tumors using a vernier caliper every fourth day and calculating volumes using the formula 0.4×W^2×L(W=smaller dia, L=larger dia,).

Acute toxicity in mice = type: in vivo; details: Swiss albino mice weighing 25 grams, observed for two weeks
Protocol: Acute toxicity studies were performed using two preferred routes of administration: intravenous and oral administration.

COc1ccccc1OCCNCC(O)COc1cccc2[nH]c3ccccc3c12 (racemic) [Carvedilol, (±)-1-(carbazol-4-yloxy)-3-[(2-(o-methoxyphenoxy)ethyl]amino]-2-propanol]
ED50 (B16F10 (melanoma); B16.F10 (Melanoma), Table 2): 10.5 ± 1.7 µg/mL (≈ 25.8 µM)
ED50 (B16F10 (melanoma); B16F10 (melanoma)): 10.5 ± 1.7 µg/mL (≈ 25.8 µM)
ED50 (DU145 (prostate)): 9.0 ± 0.9 µg/mL (≈ 22.1 µM)
ED50 (HBL100 (breast); HBL100 (Breast), Table 2): 29.0 ± 4.2 µg/mL (≈ 71.3 µM)
ED50 (HBL100 (breast); HBL100 (breast)): 29.0 ± 4.2 µg/mL (≈ 71.3 µM)
ED50 (KB (oral); KB (Oral), Table 2): 12.0 ± 1.8 µg/mL (≈ 29.5 µM)
ED50 (KB (oral); KB (oral)): 12.0 ± 1.8 µg/mL (≈ 29.5 µM)
ED50 (L132 (lung); L132 (Lung), Table 2): 16.0 ± 3.1 µg/mL (≈ 39.4 µM)
ED50 (L132 (lung); L132 (lung)): 16.0 ± 3.1 µg/mL (≈ 39.4 µM)
ED50 (MiaPaCa.2 (pancreas); MiaPaCa.2 (Pancreas), Table 2): 33.0 ± 4.6 µg/mL (≈ 81.2 µM)
ED50 (MiaPaCa.2 (pancreas); MiaPaCa.2 (pancreas)): 33.0 ± 4.6 µg/mL (≈ 81.2 µM)
ED50 (PA1 (ovary); PA1 (ovary)): 11.5 ± 2.1 µg/mL (≈ 28.3 µM)
ED50 (PA1 (ovary); PA-1 (Ovary), Table 2): 11.5 ± 2.1 µg/mL (≈ 28.3 µM)
ED50 (PTC (colon); PTC (Colon), Table 2): 7.0 ± 0.7 µg/mL (≈ 17.2 µM)
ED50 (PTC (colon); PTC (colon)): 7.0 ± 0.7 µg/mL (≈ 17.2 µM)
ED50 (U87.MG (glioblastoma); U87.MG (glioblastoma)): 14.5 ± 2.2 µg/mL (≈ 35.7 µM)
ED50 (U87.MG (glioblastoma); U87MG (Glioblastoma), Table 2): 14.5 ± 2.2 µg/mL (≈ 35.7 µM)
effect on EGF dependent proliferation (FIG. 2) [1]: inhibits the EGF dependent proliferation in pancreatic cancer cells in a dose dependent manner
effect on PDGF dependent proliferation (FIG. 3) [2]: inhibits the PDGF dependent proliferation in human pancreatic cancer cells in a dose dependent manner
cytotoxicity at 20 µg/mL ([3]; MIA PaCa-2, 48 h, read-out: % Cytotoxicity of Carvedilol (20 ug/ml), MiaPaCa2, 48 hours, Bisindolemaleimide Nil): 50%
cytotoxicity at 20 µg/mL ([3]; MIA PaCa-2, read-out: % Cytotoxicity of Carvedilol (20 ug/ml), MiaPaCa2, 48 hours, preincubated with Bisindolemaleimide 1.0 uM): 22%
cytotoxicity at 20 µg/mL ([3]; MIA PaCa-2, read-out: % Cytotoxicity of Carvedilol (20 ug/ml), MiaPaCa2, 48 hours, preincubated with Bisindolemaleimide 2.5 uM): 20%
cytotoxicity at 20 µg/mL ([3]; MIA PaCa-2, read-out: % Cytotoxicity of Carvedilol (20 ug/ml), MiaPaCa2, 48 hours, preincubated with Bisindolemaleimide 5.0 uM): 20%
cytotoxicity at 20 µg/mL ([4]; MIA PaCa-2, 48 h, read-out: % Cytotoxicity of Carvedilol (20 ug/ml), MiaPaCa2, 48 hours, Wortamannin Nil): 50%
cytotoxicity at 20 µg/mL ([4]; MIA PaCa-2, read-out: % Cytotoxicity of Carvedilol (20 ug/ml), MiaPaCa2, 48 hours, preincubated with Wortamannin 0.5 nM): 22%
cytotoxicity at 20 µg/mL ([4]; MIA PaCa-2, read-out: % Cytotoxicity of Carvedilol (20 ug/ml), MiaPaCa2, 48 hours, preincubated with Wortamannin 1.0 nM): 20%
cytotoxicity at 20 µg/mL ([4]; MIA PaCa-2, read-out: % Cytotoxicity of Carvedilol (20 ug/ml), MiaPaCa2, 48 hours, preincubated with Wortamannin 1.5 nM): 19%
cytotoxicity at 20 µg/mL ([4]; MIA PaCa-2, read-out: % Cytotoxicity of Carvedilol (20 ug/ml), MiaPaCa2, 48 hours, preincubated with Wortamannin 2.0 nM): 18%
effect on COX2 activity (FIG. 5) (Cyclooxygenase 2 enzyme; MiaPaCa2, 10 ug/ml and 20 ug/ml for 4 hours, secreted and intracellular PGE2): inhibits the COX2 activity
effect on COX 2 activity after blocking of PKC (Cyclooxygenase 2 enzyme; MiaPaCa2 preincubated with Bisindolemaleimide (1 uM) for 4 hours): abrogates the effect of Carvedilol on COX 2 activity
tumor inhibition based on tumor volumes compared with untreated controls ([5]; 300 ug/day): 37.3%
tumor inhibition based on tumor volumes compared with untreated controls ([5]; 600 ug/day): 59.1%
pattern of tumor growth (FIG. 6) ([5]; both doses (300 and 600 ug/day oral)): delayed tumor growth and tumor regression
safe dose (Acute toxicity in mice; i.v.): 0.15 mg
safe dose (Acute toxicity in mice; oral): 3 mg
